In data set [1] the test system is Human immunodeficiency virus 1. Briefly: Antiviral activity against wild type HIV1 3B infected in human MT4 cells assessed as reduction in virus-induced cytopathogenicity after 5 days by MTT assay. The format is functional, organism-based. The conditions noted are these: Human immunodeficiency virus 1, 3B, MT4, 120 h.
For data set [2], the system named is Human immunodeficiency virus 1. As to the kind of experiment: Antiviral activity against HIV1 harboring reverse transcriptase K103N/Y181C mutant infected in human MT4 cells assessed as reduction in virus-induced cytopathogenicity after 5 days by MTT assay. The conditions noted are these: Human immunodeficiency virus 1, MT4, 120 h. The format is functional, organism-based.

Data set [3] has as its system Human immunodeficiency virus 2. As to the kind of experiment: Antiviral activity against HIV2 ROD infected in human MT4 cells assessed as reduction in virus-induced cytopathogenicity after 5 days by MTT assay. The format is functional, organism-based. The conditions noted are these: Human immunodeficiency virus 2, ISOLATE ROD, MT4, 120 h.
A short description of data set [4]: Cytotoxicity against human MT4 cells measured by MTT assay. The format is cell-based.
Data set [5] in a line: Selectivity index, ratio of CC50 for human MT4 cells to EC50 for HIV1 3B. The following applies: read-out: Ratio CC50/EC50. The format is toxicity, cell-based.

Structures are written as SMILES.

The results in this text go back to ChEMBL document CHEMBL1926600, “Design, synthesis and biological evaluation of cycloalkyl arylpyrimidines (CAPYs) as HIV-1 NNRTIs” (Bioorg Med Chem, 2011).

As to `Cc1cc(SC2CCCCC2)nc(Nc2ccc(C#N)cc2)n1`, the figures for the EC50 in data set [1], in data set [2] and in data set [3] were 96 nM, above 192 µM and above 192 µM, respectively. The same compound yielded a 50% cytotoxic concentration (CC50) in data set [4] of at least 192 µM. The selectivity ratio in data set [5] is at least 2010.
Consider `N#Cc1ccc(Nc2nccc(OC3CCCCC3)n2)cc1`, for which the EC50 is 1160 nM in data set [1], above 322 µM in data set [2] and above 322 µM in data set [3]. The compound also showed a CC50 in data set [4] of 322 µM. Besides, the selectivity ratio in data set [5] turned out to be 276.
For `N#Cc1ccc(Nc2nccc(OC3CCCC3)n2)cc1`, the concentration for a half-maximal effect (EC50) in data set [1] was 6710 nM; in data set [2], above 340 µM; in data set [3], 31.3 µM. Further, in data set [4], the CC50 is at least 340 µM. In addition, the selectivity ratio in data set [5] is at least 51.
In the case of `Cc1cnc(Nc2ccc(C#N)cc2)nc1OC1CCCCC1`, the EC50 in data set [1] is 6490 nM; in data set [2] it was above 31.2 µM; in data set [3], above 31.2 µM. In data set [4], this compound registered a cytotoxic concentration (CC50) of 31.2 µM. The selectivity ratio in data set [5] was determined as 5.
On to `Cc1cnc(Nc2ccc(C#N)cc2)nc1OC1CCCC1`, for which the concentration for a half-maximal effect (EC50) in data set [1] was above 9990 nM; in data set [3], above 9.99 µM. The same compound gave a CC50 in data set [4] of 9.99 µM. In addition, the selectivity ratio in data set [5] is below 1.
Turning to `Cc1cc(OC2CCCCC2)nc(Nc2ccc(C#N)cc2)n1`, the EC50 is above 320 nM in data set [1] and above 0.32 µM in data set [3]. It took 0.32 µM to reach half-maximal cytotoxicity in data set [4] (CC50). Besides, in data set [5], the selectivity ratio was below 1.
Turning to `Cc1cc(OC2CCCC2)nc(Nc2ccc(C#N)cc2)n1`, the 50% effective concentration (EC50) is above 1050 nM in data set [1] and above 1.05 µM in data set [3]. Moreover, the CC50 in data set [4] was determined as 1.05 µM. For the same compound, in data set [5], the selectivity ratio was below 1.
Consider `N#Cc1ccc(Nc2nccc(NC3CCCCC3)n2)cc1`, for which the concentration for a half-maximal effect (EC50) is 960 nM in data set [1], above 7.33 µM in data set [2] and above 7.33 µM in data set [3]. In addition, the CC50 in data set [4] was 7.33 µM. Also, in data set [5], the selectivity ratio stood at 8.
In the case of `N#Cc1ccc(Nc2nccc(NC3CCCC3)n2)cc1`, the results for the EC50 in data set [1], in data set [2] and in data set [3] were 1580 nM, above 9.13 µM and above 9.13 µM, respectively. The midpoint of cytotoxicity in data set [4], the CC50, lay at 9.13 µM. Moreover, the selectivity ratio in data set [5] was 6.
Take `N#Cc1ccc(Nc2nccc(NC3CC3)n2)cc1`: the figures for the EC50 in data set [1] and in data set [3] were above 1190 nM and above 1.19 µM, respectively. In addition, in data set [4], it took 1.19 µM to reach half-maximal cytotoxicity (CC50). The selectivity ratio in data set [5] is below 1.
Regarding `Cc1cnc(Nc2ccc(C#N)cc2)nc1NC1CCCCC1`, the EC50 is above 1300 nM in data set [1] and above 1.3 µM in data set [3]. For the same compound, the half-maximal cytotoxic concentration (CC50) in data set [4] stood at 1.3 µM. Further, in data set [5], the selectivity ratio was below 1.
For `Cc1cnc(Nc2ccc(C#N)cc2)nc1NC1CCCC1` the same measures were above 170 nM, above 0.17 µM, 0.17 µM and below 1.
As to `Cc1cnc(Nc2ccc(C#N)cc2)nc1NC1CC1`, the figures for the concentration giving a half-maximal response (EC50) in data set [1] and in data set [3] were above 360 nM and above 0.36 µM, respectively. Also, the CC50 in data set [4] was 0.36 µM. For the same compound, the selectivity ratio in data set [5] is below 1.
With `Cc1cc(NC2CCCCC2)nc(Nc2ccc(C#N)cc2)n1`, the results for the 50% effective concentration (EC50) in data set [1] and in data set [3] were above 340 nM and above 0.34 µM, respectively. This compound also displayed a CC50 in data set [4] of 0.34 µM. The selectivity ratio in data set [5] is below 1.
Take `Cc1cc(NC2CCCC2)nc(Nc2ccc(C#N)cc2)n1`: the figures for the concentration for a half-maximal effect (EC50) in data set [1] and in data set [3] were above 310 nM and above 0.31 µM, respectively. In data set [4], the CC50 is 0.31 µM. The selectivity ratio in data set [5] was below 1.
For the compound `Cc1cc(NC2CC2)nc(Nc2ccc(C#N)cc2)n1`, the values for the concentration giving a half-maximal response (EC50) in data set [1] and in data set [3] were above 88 nM and above 0.088 µM, respectively. The CC50 in data set [4] turned out to be 0.088 µM. Also, in data set [5], the selectivity ratio was below 1.
Take `N#Cc1ccc(Nc2nccc(SC3CCCCC3)n2)cc1`: the EC50 was 55 nM in data set [1], above 403 µM in data set [2] and above 403 µM in data set [3]. Further, the cytotoxic concentration (CC50) in data set [4] is above 403 µM. Moreover, the selectivity ratio in data set [5] is above 7290.
`Cc1cnc(Nc2ccc(C#N)cc2)nc1SC1CCCCC1`: the EC50 was 430 nM in data set [1], above 33.4 µM in data set [2] and above 33.4 µM in data set [3]. The cytotoxic concentration (CC50) in data set [4] amounted to 33.4 µM. Further, the selectivity ratio in data set [5] came to 79.
`CC(C)Nc1cccnc1N1CCN(C(=O)c2cc3cc(NS(C)(=O)=O)ccc3[nH]2)CC1` [DELAVIRDINE]: the EC50 was 16 nM in data set [1] and above 4.39 µM in data set [2]. Besides, the CC50 in data set [4] is above 4.39 µM. Further, the selectivity ratio in data set [5] was above 274.
Turning to `O=C1Nc2ccc(Cl)cc2[C@@](C#CC2CC2)(C(F)(F)F)O1` [EFAVIRENZ], the EC50 in data set [1] turned out to be 5.4 nM; in data set [2], 0.51 µM. Further, the CC50 in data set [4] was above 6.34 µM. For the same compound, the selectivity ratio in data set [5] is above 1150.
Regarding `Cc1cc(C#N)cc(C)c1Oc1nc(Nc2ccc(C#N)cc2)nc(N)c1Br` [ETRAVIRINE], the EC50 in data set [1] is 2.2 nM; in data set [2], 0.034 µM; in data set [3] it was above 27.8 µM. Also, the midpoint of cytotoxicity in data set [4], the CC50, lay at 27.8 µM. Further, the selectivity ratio in data set [5] was 12900.
For the compound `Cc1ccnc2c1NC(=O)c1cccnc1N2C1CC1` [NEVIRAPINE], the results for the EC50 in data set [2] and in data set [3] were 3.49 µM and above 15 µM, respectively. Also, the CC50 in data set [4] was above 15 µM.
For `Cc1cn([C@H]2C[C@H](N=[N+]=[N-])[C@@H](CO)O2)c(=O)[nH]c1=O` [ZIDOVUDINE], the EC50 amounted to 7.5 nM in data set [1], 0.013 µM in data set [2] and 0.0075 µM in data set [3]. In data set [4], this compound had a CC50 of at least 46.4 µM. In addition, in data set [5], the selectivity ratio is at least 6360.
